Laboratory results as given in patent US12377175B2, “Trifunctional constructs with tunable pharmacokinetics useful in imaging and anti-tumor therapies” (Cornell University, priority 2016, dated 2025).

What was measured:
[1] = tested on: LNCaP xenograft tumor-bearing mice; assay: PET/CT imaging of 66Ga-RPS ligands in LNCaP xenograft mice; assay type: in vivo, mouse; details: 66Ga PET/CT; 24 h post injection
Description: (§1) Inoculation of mice with xenografts: All animal studies were approved by the Institutional Animal Care and Use Committee of Weill Cornell Medicine and were undertaken in accordance with the guidelines set forth by the USPHS Policy on Humane Care and Use of Laboratory Animals. Animals were housed under standard conditions in approved facilities with 12 h light/dark cycles. Food and water was provided ad libitum throughout the course of the studies. Hairless male nu/nu mice were purchased from the Jackson Laboratory. For inoculation in mice, LNCaP cells were suspended at 4×10^7 cells/mL in a 1:1 mixture of PBS:Matrigel (BD Biosciences). Each mouse was injected in the left flank with 0.25 mL of the cell suspension. The mice were imaged when the tumors reached approximately 200-400 mm^3, while biodistributions were conducted when tumors were in the range 100-400 mm^3.
Imaging of ^66Ga-RPS ligands in LNCaP xenograft mice: LNCaP xenograft tumor-bearing mice (2-3 per compound) injected intravenously with a bolus injection of 0.56-5.4 MBq (15-145 μCi) of the ^66Ga-labeled ligand. The specific activity of the tracers was in the range 14.8-47 MBq/μmol (0.4-1.27 mCi/μmol). The mice were imaged using PET/CT (Inveon™; Siemens Medical Solutions, Inc.) at 1, 3, 6 and 24 h post-injection following inhalation anesthetization with isoflurane. Total acquisition time was 30 min for the 1 h, 3 h and 6 h images, and 60 min for 24 h time point. A CT scan was obtained immediately before the acquisition for both anatomical co-registration and attenuation correction. Images were reconstructed using the Inveon™ software supplied by the vendor. Image-derived tumor and kidney uptake was estimated by comparison to a 10% injected dose […] standard introduced into the imaging field of view. The standard was prepared by dilution of 10% of the injected activity to 1 mL with saline. Volumes of interest (VOIs) were drawn with the aid of the CT and confirmed by PET. The contents of the VOIs were integrated and the calculated counts were converted to […] by direct comparison to the aforementioned standard following correction for activity injected.

PSMA on LNCaP cells = molecular target: T1, PSMA on LNCaP cells (Homo sapiens, UniProt Q04609); details: cited from earlier work
T1 construct: host or cells: LNCaP
T1 sequence (Q04609 whole entry): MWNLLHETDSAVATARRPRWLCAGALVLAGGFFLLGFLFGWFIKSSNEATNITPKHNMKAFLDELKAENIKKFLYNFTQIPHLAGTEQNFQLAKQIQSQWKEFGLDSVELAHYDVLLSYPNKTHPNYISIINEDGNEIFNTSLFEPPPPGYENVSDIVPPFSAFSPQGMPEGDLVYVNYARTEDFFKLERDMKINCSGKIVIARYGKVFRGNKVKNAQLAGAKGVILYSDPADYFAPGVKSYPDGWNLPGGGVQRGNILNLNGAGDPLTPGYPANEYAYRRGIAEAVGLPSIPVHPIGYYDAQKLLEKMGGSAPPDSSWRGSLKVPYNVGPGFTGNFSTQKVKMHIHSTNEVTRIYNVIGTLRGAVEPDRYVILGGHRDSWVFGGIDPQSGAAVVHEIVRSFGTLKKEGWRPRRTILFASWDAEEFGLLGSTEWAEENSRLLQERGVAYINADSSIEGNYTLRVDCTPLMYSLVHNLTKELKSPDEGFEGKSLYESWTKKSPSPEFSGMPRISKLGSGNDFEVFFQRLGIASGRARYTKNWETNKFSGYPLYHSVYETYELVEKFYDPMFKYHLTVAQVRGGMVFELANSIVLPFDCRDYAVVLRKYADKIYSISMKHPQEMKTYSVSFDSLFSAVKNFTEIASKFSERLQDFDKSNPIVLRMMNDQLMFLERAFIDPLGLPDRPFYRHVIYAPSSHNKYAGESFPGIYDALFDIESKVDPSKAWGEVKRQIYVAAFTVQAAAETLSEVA

[2] = tested on: LNCaP xenograft tumor-bearing mice; assay: Dosimetry (dose integrals from time-activity curves of 177Lu-labeled ligands); assay type: in vivo, mouse; details: over 96 h
Description: Dosimetry: The dosimetry was calculated assuming a linear interpolation between the three time points. The average injected dose per organ was calculated by using the average of the activity and organ weights of the mice at that time point. Intermediate time points at every 4 hours were generated using the linear approximation and all time points were corrected for decay during the time interval between points. These curves were integrated using a trapezoidal approximation and the sum used to determine the residence time.

[3] = tested on: LNCaP xenograft tumor-bearing mice; assay: Biodistribution studies of 177Lu-labeled ligands in LNCaP xenograft mice; assay type: in vivo, mouse
Description: as §1
Biodistribution studies of 177Lu-labeled ligands in LNCaP xenograft mice: LNCaP xenograft tumor-bearing mice (5 per time point per compound) were injected intravenously with a bolus injection of 348-851 kBq (9.4-23 μCi) and 37-50 ng ([…]) of each ligand. The mice were sacrificed at 4, 24 and 96 h post injection. A blood sample was removed, and a full biodistribution study was conducted on the following organs (with contents): heart, lungs, liver, small intestine, large intestine, stomach, spleen, pancreas, kidneys, muscle, bone and tumor. Tissues were weighed and counted on a 2470 Wizard^2 Automatic Gamma Counter (Perkin Elmer). Counts were corrected for decay and for activity injected, and tissue uptake was expressed as percent injected dose per gram (% ID/g). Standard error measurement was calculated for each data point.

[4] = Biodistribution / in vivo stability of [225Ac(macropa)]+ compared with 225Ac(NO3)3 and [225Ac(DOTA)]- in C57BL/6 mice; details: for accumulation of 225Ac in organs / blood clearance and excretion: tail vein, 15 min, 1 h, 5 h
Description: C57BL/6 mice were injected via tail vein with 10-50 kBq of each radiometal complex and were sacrificed after 15 min, 1 h, or 5 h.

LNCaP xenograft tumors = assay: Therapy study in LNCaP xenograft mice; assay type: in vivo, mouse; details: for tumors not detectable (<0.5 mm^3): 75 d post injection
Description: as §1, with “xenografts.” for “xenografts:”, “Male BALB/c athymic” for “Hairless male”, “Biodistributions” for “The mice were imaged when the tumors reached approximately 200-400 mm^3, while biodistributions”, “200-800 mm^3, while therapy studies were initiated when tumors were in the range 50-900” for “100-400”
Therapy study in LNCaP xenograft mice. LNCaP xenograft tumor-bearing mice were randomly assigned to 5 groups (7 mice per group). […] The fourth group was injected with the same volume of vehicle. The fifth group was injected with 133 kBq ^225Ac-DOTA-Lys-IPBA. Tumor dimensions were measured and recorded three times weekly with digital calipers, and tumor volumes were calculated using the modified ellipsoid equation, V=0.5*length*width*width. […] Body weight was measured with a digital balance twice weekly, and mice were monitored for signs of distress. The mice were photographed weekly to visually confirm changes in tumor volume.

Question: For `O=C([O-])CN1CCN(CC(=O)[O-])CCN(CC(=O)O)C(Cc2ccc(NC(=S)NCCCC[C@H](NC(=O)CCOCCOCCOCCOCCOCCOCCn3cc(-c4cccc(NC(=O)NCCCC[C@H](NC(=O)N[C@@H](CCC(=O)O)C(=O)O)C(=O)O)c4)nn3)C(=O)N[C@@H](CCCCNC(=O)Cc3ccc(I)cc3)C(=O)O)cc2)CN(CC(=O)[O-])CC1.[66Ga+3]` (stereo partly shown) [66Ga-RPS-069], which “tumor uptake (image-derived)” value [1] is on record?
Answer: The value was 7.0±3.9 % ID/cm^3.

Question: Which Kd (PSMA on LNCaP cells) does the source give for `O=C(O)CC[C@H](NC(=O)N[C@@H](CCC(=O)N[C@@H](CCCCN(Cc1nccn1CC(=O)O)Cc1nccn1CC(=O)O)C(=O)O)C(=O)O)C(=O)O.[C-]#[O+].[C-]#[O+].[C-]#[O+].[Tc+]` [99mTc-MIP-1427, ^99mTc-((7S,12S,16S)-1-(1-(carboxymethyl)-1H-imidazol-2-yl)-2-((1-(carboxymethyl)-1H-imidazol-2-yl)methyl)-9,14-dioxo-2,8,13,15-tetraazaoctadecane-7,12,16,18-tetracarboxylic acid technetiumtricarbonylcomplex)] here?
Answer: The Kd was 0.64 ± 0.46 nM.

Question: For `O=C([O-])CN1CCN(CC(=O)[O-])CCN(CC(=O)O)C(Cc2ccc(NC(=S)NCCCC[C@H](NC(=O)CCOCCOCCOCCOCCn3cc(-c4cccc(NC(=O)NCCCC[C@H](NC(=O)N[C@@H](CCC(=O)O)C(=O)O)C(=O)O)c4)nn3)C(=O)N[C@@H](CCCCNC(=O)Cc3ccc(I)cc3)C(=O)O)cc2)CN(CC(=O)[O-])CC1.[177Lu+3]` (stereo partly shown) [177Lu-RPS-061], which “dose integral in the tumor relative to 177Lu-PSMA-617” value [2] is on record?
Answer: Its value is “at least two times higher”.

Question: And the “blood activity (comparison within the series)” value (“blood activity” for short) ([3]; 4 h p.i.)?
Answer: The value was “highest blood activity”.

Question: What about the tumor-to-kidney ratio ([3]; 96 h p.i.) of the same compound?
Answer: Its tumor-to-kidney ratio is 3.64±0.29.

Question: Which “dose integral in the tumor relative to 177Lu-PSMA-617” value [2] does the source give for `O=C([O-])CN1CCN(CC(=O)[O-])CCN(CC(=O)O)C(Cc2ccc(NC(=S)NCCCC[C@H](NC(=O)CCOCCOCCOCCn3cc(-c4cccc(NC(=O)NCCCC[C@H](NC(=O)N[C@@H](CCC(=O)O)C(=O)O)C(=O)O)c4)nn3)C(=O)N[C@@H](CCCCNC(=O)Cc3ccc(I)cc3)C(=O)O)cc2)CN(CC(=O)[O-])CC1.[177Lu+3]` (stereo partly shown) [177Lu-RPS-063] here?
Answer: The value was “nearly four times higher”.

Question: What about the “blood activity” value ([3]; 4 h p.i.) of the same compound?
Answer: Its value is “highest blood activity”.

Question: And the tumor uptake ([3]; 4 h p.i.)?
Answer: The tumor uptake was 30.0±3.1 % ID/g.

Question: And the kidney uptake ([3]; 24 h p.i.)?
Answer: Its kidney uptake is 51.8±8.6 % ID/g.

Question: What about the tumor uptake ([3]; 96 h p.i.) of the same compound?
Answer: Its tumor uptake is 12.9±0.5 % ID/g.

Question: What about the tumor-to-kidney ratio ([3]; 96 h p.i.) of the same compound?
Answer: The tumor-to-kidney ratio was 2.75±0.17.

Question: For `O=C([O-])CN1CCN(CC(=O)[O-])CCN(CC(=O)O)C(Cc2ccc(NC(=S)NCCCC[C@H](NC(=O)CCOCCOCCOCCOCCOCCOCCOCCOCCn3cc(-c4cccc(NC(=O)NCCCC[C@H](NC(=O)N[C@@H](CCC(=O)O)C(=O)O)C(=O)O)c4)nn3)C(=O)N[C@@H](CCCCNC(=O)Cc3ccc(I)cc3)C(=O)O)cc2)CN(CC(=O)[O-])CC1.[177Lu+3]` (stereo partly shown) [177Lu-RPS-066], which “dose integral in the tumor relative to 177Lu-PSMA-617” value [2] is on record?
Answer: The value was “at least two times higher”.

Question: And the “blood activity” value ([3]; 4 h p.i.)?
Answer: The value was “lower blood retention”.

Question: What about the tumor uptake ([3]; 4 h p.i.) of the same compound?
Answer: The tumor uptake was 18.7±1.1 % ID/g.

Question: And the kidney uptake ([3]; 24 h p.i.)?
Answer: The kidney uptake was 6.2±0.8 % ID/g.

Question: And the tumor-to-kidney ratio ([3]; 24 h p.i.)?
Answer: Its tumor-to-kidney ratio is 1.92±0.30.

Question: And the tumor uptake ([3]; 96 h p.i.)?
Answer: The tumor uptake was 5.9±0.7 % ID/g.

Question: For `O=C([O-])CN1CCN(CC(=O)[O-])CCN(CC(=O)O)C(Cc2ccc(NC(=S)NCCCC[C@H](NC(=O)CCOCCOCCOCCOCCOCCOCCn3cc(-c4cccc(NC(=O)NCCCC[C@H](NC(=O)N[C@@H](CCC(=O)O)C(=O)O)C(=O)O)c4)nn3)C(=O)N[C@@H](CCCCNC(=O)Cc3ccc(I)cc3)C(=O)O)cc2)CN(CC(=O)[O-])CC1.[177Lu+3]` (stereo partly shown) [177Lu-RPS-069], which “dose integral in the tumor relative to 177Lu-PSMA-617” value [2] is on record?
Answer: The value was “at least two times higher”.

Question: What about the “blood activity” value ([3]; 4 h p.i.) of the same compound?
Answer: The value was “lower blood retention”.

Question: And the tumor uptake ([3]; 4 h p.i.)?
Answer: The tumor uptake was 17.0±2.1 % ID/g.

Question: What about the tumor uptake ([3]; 96 h p.i.) of the same compound?
Answer: Its tumor uptake is 9.8±0.8 % ID/g.

Question: Which results are given for `O=[N+]([O-])[O-].O=[N+]([O-])[O-].O=[N+]([O-])[O-].[225Ac]` [225Ac(NO3)3, reference compound]?
Answer: accumulation of 225Ac in organs [4]: large accumulation in the liver and spleen; blood clearance and excretion [4]: slow blood clearance and excretion

Question: With `O=C([O-])CN1CCN(CC(=O)[O-])CCN(CC(=O)O)C(Cc2ccc(NC(=S)N[C@@H](CCCCNC(=O)CCCc3ccc(I)cc3)C(=O)O)cc2)CN(CC(=O)[O-])CC1.[225Ac+3]` (stereo partly shown) [225Ac-DOTA-Lys-IPBA] as the compound, how does the “mice surviving the first 21 d” value (LNCaP xenograft tumors; 133 kBq positive control group) read?
Answer: Its value is 100%.

Question: Which “mice surviving the first 21 d” value (LNCaP xenograft tumors; 37 kBq group) does the source give for `O=C(O)CC[C@H](NC(=O)N[C@@H](CCCCNC(=O)Nc1cccc(-c2cn(CCOCCOCCOCCC(=O)N[C@@H](CCCCNC(=S)Nc3cc(CN4CCOCCOCCN(Cc5cccc(C(=O)[O-])n5)CCOCCOCC4)nc(C(=O)[O-])c3)C(=O)NCCOCCOCCOCCOCCOCCOCCOCCOCCC(=O)N[C@@H](CCCCNC(=O)CCCc3ccc(I)cc3)C(=O)O)nn2)c1)C(=O)O)C(=O)O.[225Ac+3]` [225Ac-RPS-074] here?
Answer: The value was 100%.

Question: What about the tumor growth rate (LNCaP xenograft tumors; 37 kBq treatment group) of the same compound?
Answer: Its tumor growth rate is “appeared to grow at a similar rate to the untreated tumors”.

Question: And the “tumors not detectable (<0.5 mm^3)” value (LNCaP xenograft tumors; 74 kBq group, 1/7)?
Answer: Its value is 14%.

Question: And the “tumor volumes that began to increase again” value (LNCaP xenograft tumors; 74 kBq group, after 42 d, 6/7)?
Answer: Its value is 86%.

Question: And the “time over which tumor volume decreased” value (LNCaP xenograft tumors; 74 kBq group, post injection)?
Answer: Its value is ≤ 42 days.

Question: What about the “mice with tumor volume less than 1 mm^3” value (LNCaP xenograft tumors; 74 kBq group, up to 42 days p.i., 5/7) of the same compound?
Answer: The value was 71%.

Question: What about the antitumor effect (LNCaP xenograft tumors; 138 kBq and 74 kBq) of the same compound?
Answer: Its antitumor effect is “significant antitumor effect”.

Question: And the “survival of the 75 d study” value (LNCaP xenograft tumors; 138 kBq treatment group)?
Answer: Its value is “Every mouse in the 138 kBq treatment group survived”.

Question: What about the “tumors not detectable (<0.5 mm^3)” value (LNCaP xenograft tumors; 138 kBq treatment group, 6/7) of the same compound?
Answer: The value was 86%.

Question: For `O=C([O-])CN1CCN(CC(=O)[O-])CCN(CC(=O)[O-])CCN(CC(=O)[O-])CC1.[225Ac+3]` [[225Ac(DOTA)]-, reference compound], which “blood clearance and excretion” value [4] is on record?
Answer: Its value is “clear more rapidly through the urine”.

Question: Which “in vivo stability of the complex” value [4] does the source give for `O=C([O-])c1cccc(CN2CCOCCOCCN(Cc3cccc(C(=O)[O-])n3)CCOCCOCC2)n1.[225Ac+3]` [[225Ac(macropa)]+] here?
Answer: Its value is “highly stable in vivo”.

Question: What about the “accumulation of 225Ac in organs” value [4] of the same compound?
Answer: Its value is “did not accumulate in any organ”.

Question: What about the “blood clearance and excretion” value [4] of the same compound?
Answer: Its value is “rapidly cleared from mice”.
